ChEMBL document CHEMBL5053526, “Synthesis and biological evaluation of cajanonic acid A derivatives as potential PPARγ antagonists” (2021)
Calls of active or inactive are those of the source. The calls are words filed in the database; no cut-off is given here.

Experiments:
HepG2 [1] = test: Insulin-sensitizing activity in human HepG2 cells assessed as glucose consumption at 10 uM (Rvb= 2.04 +/- 0.12 mM); type: functional
HepG2 [2] = test: Insulin-sensitizing activity in human HepG2 cells assessed as increase in glucose consumption at 10 uM relative to control; type: functional
[3] = target: T1, Peroxisome proliferator-activated receptor gamma (Homo sapiens) (UniProt P37231); test: Antagonist activity at PPARgamma in HEK293 cells assessed as suppression of rosiglitazone induced PPARgamma transactivation at 30 uM by dual-luciferase reporter gene assay relative to control; type: cell-based; design: scale not given: the % may be the effect or the level left
T1 sequence (whole entry): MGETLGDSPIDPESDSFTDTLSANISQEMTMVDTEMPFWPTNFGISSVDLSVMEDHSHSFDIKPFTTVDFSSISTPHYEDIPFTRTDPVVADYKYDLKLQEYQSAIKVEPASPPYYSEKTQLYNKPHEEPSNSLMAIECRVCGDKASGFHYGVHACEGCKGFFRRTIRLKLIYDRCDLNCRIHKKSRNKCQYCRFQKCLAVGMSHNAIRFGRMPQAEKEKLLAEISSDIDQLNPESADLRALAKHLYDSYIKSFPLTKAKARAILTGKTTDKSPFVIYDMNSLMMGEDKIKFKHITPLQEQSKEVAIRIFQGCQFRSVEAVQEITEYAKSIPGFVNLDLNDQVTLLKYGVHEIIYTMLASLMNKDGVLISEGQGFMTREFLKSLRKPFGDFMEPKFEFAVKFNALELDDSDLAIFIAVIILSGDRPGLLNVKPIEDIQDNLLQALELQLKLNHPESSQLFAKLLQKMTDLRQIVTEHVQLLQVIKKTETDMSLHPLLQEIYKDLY

Mus musculus = species on record: Mus musculus; test: Hypoglycemic activity in db/db mouse assessed as improvement in oral glucose tolerance measured up to 120 mins by OGTT; type: functional, organism-based
HepG2 [4] = test: Insulin-sensitizing activity in human HepG2 cells assessed as fold change in glucose consumption at 10 uM relative to CAA; type: functional
HepG2 [5] = test: Insulin-sensitizing activity in human HepG2 cells assessed as fold change in glucose consumption at 10 uM relative to pioglitazone; type: functional
[6] = target: T1, Peroxisome proliferator-activated receptor gamma (Homo sapiens); test: Antagonist activity at PPARgamma in HEK293 cells assessed as fold increase in suppression of rosiglitazone induced PPARgamma transactivation at 30 uM by dual-luciferase reporter gene assay relative to CAA; type: cell-based

COc1cc2c(c(OCC=C(C)C)c1)C(=O)N(C(C)c1cccc(C(F)(F)F)c1)CC2 (centres undefined)
Activity (HepG2 [1]): 2.66 mM
Activity (HepG2 [2]): 30.6%
Activity ([3]; filed as antagonist): 79.4%

COc1cc(O)c(C(=O)O)c(CC(=O)c2ccc(Cl)cc2Cl)c1CC=C(C)C
Activity (HepG2 [1]): 2.52 mM
Activity (HepG2 [2]): 23.1%
Activity ([3]; filed as antagonist): 54.3%

COc1cc(O)c(C(=O)O)c(CC(=O)c2ccccc2)c1CC=C(C)C
Activity (HepG2 [1]): 2.73 mM
Activity (HepG2 [2]): 34%
Activity ([3]; filed as antagonist): 73.7%

COc1cc(O)c(C(=O)O)c(CC(=O)c2ccc(Cl)cc2)c1
Activity (HepG2 [1]): 2.37 mM
Activity (HepG2 [2]): 16.3%
Activity [3]: 12%

COc1cc(CC(=O)c2ccc(F)cc2)c(C(=O)O)c(O)c1CC=C(C)C
Activity (HepG2 [1]): 2.97 mM
Activity (HepG2 [2]): 45.6%
Activity ([3]; filed as antagonist): 93.4%

CCc1ccc(CCOc2ccc(CC3SC(=O)NC3=O)cc2)nc1 (centres undefined) [PIOGLITAZONE]
Activity (HepG2 [1]): 2.92 mM
Activity (HepG2 [2]): 43.3%

COc1cc(O)c(C(=O)O)c(CC(=O)c2ccc(F)cc2)c1CC=C(C)C
Activity (HepG2 [1]): 2.85 mM
Activity (HepG2 [2]): 39.7%
Activity ([3]; filed as antagonist): 72.8%

COc1cc(O)c(C(=O)O)c(CC(=O)c2ccc(Cl)cc2Cl)c1
Activity (HepG2 [1]): 2.25 mM
Activity (HepG2 [2]): 10.2%
Activity [3]: 15.9%

COc1cc(O)c(C(=O)O)c(CS(=O)(=O)c2ccccc2)c1
Activity (HepG2 [1]): 1.85 mM
Activity (HepG2 [2]): -9.4%
Activity [3]: -14%

COc1cc(O)c(C(=O)O)c(CS(=O)(=O)c2ccccc2)c1CC=C(C)C
Activity (HepG2 [1]): 2.14 mM
Activity (HepG2 [2]): 4.9%
Activity [3]: -1%

COc1cc(CC(=O)c2ccc(Cl)cc2)c(C(=O)O)c(O)c1CC=C(C)C
Activity (HepG2 [1]): 2.59 mM
Activity (HepG2 [2]): 26.2%
Activity [3]: 28.1%

COc1cc(O)c(C(=O)O)c(CC(=O)c2cccs2)c1
Activity (HepG2 [1]): 2.24 mM
Activity (HepG2 [2]): 9.1%
Activity [3]: 8.7%

COc1cc2c(c(OCC=C(C)C)c1)C(=O)N(Cc1cccc(C(F)(F)F)c1)CC2
Activity (HepG2 [1]): 3.07 mM
Activity (Mus musculus): Active
fold change (FC) (HepG2 [4]): 1.5
Activity (HepG2 [2]): 50.6%
Activity ([3]; filed as antagonist): 98.2%
fold change (FC) (HepG2 [5]): 1.2
fold change (FC) [6]: 1.3

COc1cc2c(c(OCC=C(C)C)c1)C(=O)N(Cc1ccc(F)c(Cl)c1)CC2
Activity (HepG2 [1]): 2.79 mM
Activity (HepG2 [2]): 36.9%
Activity ([3]; filed as antagonist): 61.1%

COc1cc(CC(=O)c2cccs2)c(C(=O)O)c(O)c1CC=C(C)C
Activity (HepG2 [1]): 2.43 mM
Activity (HepG2 [2]): 19.1%
Activity ([3]; filed as antagonist): 90.2%

COc1cc2c(c(OCC=C(C)C)c1)C(=O)N(Cc1cccc(F)c1)CC2
Activity (HepG2 [1]): 2.8 mM
Activity (HepG2 [2]): 37.4%
Activity ([3]; filed as antagonist): 75.1%

COc1cc2c(c(OCC=C(C)C)c1)C(=O)N(C(C)c1ccccc1)CC2 (centres undefined)
Activity (HepG2 [1]): 2.62 mM
Activity (HepG2 [2]): 28.5%
Activity ([3]; filed as antagonist): 81.7%

COc1cc(O)c(C(=O)O)c(CC(=O)c2ccc(F)cc2)c1
Activity (HepG2 [1]): 2.02 mM
Activity (HepG2 [2]): -1%
Activity [3]: 6.3%

COc1cc(CS(=O)(=O)c2ccccc2)c(C(=O)O)c(O)c1CC=C(C)C
Activity (HepG2 [1]): 1.97 mM
Activity (HepG2 [2]): -3.4%
Activity [3]: 1.9%

COc1cc(O)c(C(=O)O)c(CC(=O)c2cccs2)c1CC=C(C)C
Activity (HepG2 [1]): 2.41 mM
Activity (HepG2 [2]): 18%
Activity ([3]; filed as antagonist): 84.6%

COc1cc(CC(=O)c2ccc(Cl)cc2Cl)c(C(=O)O)c(O)c1CC=C(C)C
Activity (HepG2 [1]): 2.69 mM
Activity (HepG2 [2]): 31.9%
Activity ([3]; filed as antagonist): 83.2%

COc1cc(O)c(C(=O)O)c(CC(=O)c2ccc(Cl)cc2)c1CC=C(C)C
Activity (HepG2 [1]): 2.6 mM
Activity (HepG2 [2]): 27.5%
Activity [3]: 11.3%
